Results on 3 compounds are retold here after ChEMBL document CHEMBL2396560, “Discovery of (R)-4-cyclopropyl-7,8-difluoro-5-(4-(trifluoromethyl)phenylsulfonyl)-4,5-dihydro-1H-pyrazolo[4,3-c]quinoline (ELND006) and (R)-4-cyclopropyl-8-fluoro-5-(6-(trifluoromethyl)pyridin-3-ylsulfonyl)-4,5-dihydro-2H-pyrazolo[4,3-c]quinoline (ELND007): metabolically stable γ-secretase …” (J Med Chem, 2013).

Usually IC50 stands for the concentration that inhibits the measured activity by half. The bioavailability is dose-corrected exposure relative to a reference, in per cent. The term solubility denotes how much of the substance goes into solution per volume. As a reminder, the clearance is the rate of elimination divided by the concentration. By logP is commonly meant the decadic logarithm of the partition coefficient of the neutral form, usually between octanol and water.

Series [1] has as its system Liver microsomes. The experiment in a line: Oxidative metabolism in human liver microsomes assessed as compound remaining. Format: ADME, Microsome.
Series [2] relates to Liver. Description: Glucuronidation metabolism in mouse liver microsomes assessed as compound remaining. Format: ADME, Microsome. Background: Microsomes from liver hold many membrane-bound enzymes, among them those of drug oxidation.
Series [3] has as its system Mus musculus. The experiment in a line: Reduction in amyloid beta (x to 40) in FVB mouse cortex at 3 mg/kg, po administered as single dose measured at 3 hrs. Format: functional. Further details: scale not given: the % may be the effect or the level left.
Series [4] concerns Liver microsomes. The experiment in a line: Glucuronidation metabolism in rat liver microsomes assessed as compound remaining. Format: ADME, Microsome.
In series [5] the test system is Mus musculus. The experiment in a line: Reduction in amyloid beta (x to 40) in FVB mouse cortex at 10 mg/kg, po administered as single dose measured at 3 hrs. Format: functional. Also noted: scale not given: the % may be the effect or the level left.
For series [6], the system named is Liver microsomes. Description: Glucuronidation metabolism in human liver microsomes assessed as compound remaining. Format: ADME, Microsome.
Series [7] relates to CHO. The experiment in a line: Inhibition of gamma-secretase in CHO cells assessed expressing APPSw assessed as inhibition of amyloid beta(1 to x) secretion after overnight incubation by ELISA. Format: cell-based. As to conditions: Cricetulus griseus. In general terms: In an ELISA, binding on a coated surface is turned into a signal by an enzyme label.
The subject of series [8] is Liver. Description: Oxidative metabolism in mouse liver microsomes assessed as compound remaining. Format: ADME, Microsome.
In series [9] the test system is Liver. Description: Glucuronidation metabolism in dog liver microsomes assessed as compound remaining. Format: ADME, Canis lupus familiaris, Microsome.
The test system of series [10] is Liver microsomes. Description: Oxidative metabolism in rat liver microsomes assessed as compound remaining. Format: ADME, Microsome.
For series [11], the system named is Mus musculus. Description: Reduction in amyloid beta (x to 40) in FVB mouse cortex at 30 mg/kg, po administered as single dose measured at 3 hrs. Further details: scale not given: the % may be the effect or the level left. Format: functional.
For series [12], the target named is Gamma-secretase. Description: Inhibition of partially purified human gamma-secretase-mediated cleavage of MBP-APPc125Sw fusion protein measured after overnight incubation by ELISA. Format: protein-complex assay.
Series [13] has as its system CHO. Description: Selctivity ratio of ED50 for gamma-secretase in CHO cells assessed expressing NotchdeltaE assessed as inhibition of notch cleavage to ED50 for gamma-secretase in CHO cells assessed expressing APPSw assessed as inhibition of amyloid beta(1 to x) secretion. Format: cell-based. Particulars: Cricetulus griseus.
The target of series [14] is Gamma-secretase. Description: Inhibition of partially purified human gamma-secretase-mediated cleavage of notch fusion protein measured after overnight incubation by ELISA. Format: protein-complex assay.
The subject of series [15] is Liver. Description: Oxidative metabolism in dog liver microsomes assessed as compound remaining. Format: ADME, Canis lupus familiaris, Microsome.
Series [16] concerns the target Gamma-secretase (Homo sapiens) (UniProt Q96BI3+Q9NZ42+Q8WW43+P49768+Q92542+P49810). Description: Selctivity ratio of IC50 for partially purified human gamma-secretase-mediated cleavage of notch fusion protein to IC50 for partially purified human gamma-secretase-mediated cleavage of MBP-APPc125Sw fusion protein. Format: protein-complex assay.
For series [17], the system named is CHO. The experiment in a line: Inhibition of gamma-secretase in CHO cells assessed expressing NotchdeltaE assessed as inhibition of notch cleavage after overnight incubation by luciferase reporter gene assay. Format: cell-based. As to conditions: Cricetulus griseus. (A reporter such as luciferase makes a cellular process visible.)
Series [18] concerns Mus musculus. Description: Reduction in amyloid beta (x to 40) in FVB mouse cortex at 1 mg/kg, po administered as single dose measured at 3 hrs. Format: functional. Also noted: scale not given: the % may be the effect or the level left.
Series [19] can be described thus: Oral bioavailability in rat. Format: ADME, organism-based. As to conditions: in vivo.
The nature of series [20]: Passive permebility in wild-type MDCK cells. Format: ADME, cell-based, Canis lupus familiaris. As to conditions: dog, read-out: permeability.
The nature of series [21]: Drug uptake in FVB mouse brain at 30 mg/kg, po at 3 hrs. Format: ADME, organism-based. Further details: dose 30 mg/kg, route oral. Particulars: read-out: Drug uptake.
Series [22] can be described thus: Aqueous solubility of the compound. Format: physicochemical. Particulars: buffer.
A short description of series [23]: Plasma concentration in FVB mouse at 3 mg/kg, po at 3 hrs. Format: ADME, organism-based. Also noted: dose 3 mg/kg, route oral.
Series [24] deals with Mus musculus. The experiment in a line: Toxicity in FVB mouse assessed as effect on Hes-1 mRNA level in thymus at 10 mg/kg, po administered as single dose measured at 3 hrs. Format: organism-based. Further details: dose 10 mg/kg, route oral. As to conditions: in vivo.
Series [25] can be described thus: Plasma concentration in FVB mouse at 30 mg/kg, po at 3 hrs. Format: ADME, organism-based. Also noted: dose 30 mg/kg, route oral.
Series [26] has as its system Homo sapiens. Description: Hepatic toxicity in po dosed healthy human administered as gelatin capsule. Format: organism-based. As to conditions: in vivo.
Series [27] has as its system Plasma. Description: AUC (0 to 3 hrs) in FVB mouse plasma at 3 mg/kg, po. Format: ADME, organism-based. Further details: time < 3 hr, dose 3 mg/kg, route oral. Particulars: in vivo.
A short description of series [28]: Systemic clearance in rat. Format: ADME, organism-based. Particulars: in vivo.
A short description of series [29]: Plasma concentration in FVB mouse at 10 mg/kg, po at 3 hrs. Format: ADME, organism-based. Also noted: dose 10 mg/kg, route oral.
The nature of series [30]: Plasma concentration in FVB mouse at 1 mg/kg, po at 3 hrs. Further details: dose 1 mg/kg, route oral. Format: ADME, organism-based.
Series [31] is filed under the species Rattus norvegicus. Description: Systemic clearance in rat relative to hepatic blood flow. Format: ADME, organism-based, Liver. As to conditions: in vivo.
The test system of series [32] is Plasma. Description: AUC (0 to 3 hrs) in FVB mouse plasma at 30 mg/kg, po. Particulars: in vivo. Also noted: time < 3 hr, dose 30 mg/kg, route oral. Format: ADME, organism-based.
Series [33] can be described thus: Drug uptake in FVB mouse brain at 3 mg/kg, po at 3 hrs. Format: ADME, organism-based. Further details: dose 3 mg/kg, route oral. As to conditions: read-out: Drug uptake.
Series [34] relates to Mus musculus. The experiment in a line: Toxicity in FVB mouse assessed as effect on Hes-1 mRNA level in thymus at 3 mg/kg, po administered as single dose measured at 3 hrs. Format: organism-based. Further details: dose 3 mg/kg, route oral. Particulars: in vivo.
Series [35] deals with Mus musculus. Description: Toxicity in FVB mouse assessed as effect on Hes-1 mRNA level in thymus at 30 mg/kg, po administered as single dose measured at 3 hrs. Format: organism-based. Also noted: dose 30 mg/kg, route oral. As to conditions: in vivo.
Series [36] concerns Mus musculus. The experiment in a line: Toxicity in FVB mouse assessed as effect on Hes-1 mRNA level in thymus at 1 mg/kg, po administered as single dose measured at 3 hrs. Format: organism-based. Further details: dose 1 mg/kg, route oral. Particulars: in vivo.
Series [37] relates to Brain. The experiment in a line: AUC (0 to 3 hrs) in FVB mouse brain at 1 mg/kg, po. Format: ADME, organism-based. Further details: time < 3 hr, dose 1 mg/kg, route oral. As to conditions: in vivo.
The subject of series [38] is Brain. The experiment in a line: AUC (0 to 3 hrs) in FVB mouse brain at 10 mg/kg, po. Format: ADME, organism-based. Also noted: time < 3 hr, dose 10 mg/kg, route oral. Particulars: in vivo.
In series [39] the test system is Brain. The experiment in a line: AUC (0 to 3 hrs) in FVB mouse brain at 30 mg/kg, po. Further details: time < 3 hr, dose 30 mg/kg, route oral. Format: ADME, organism-based. Particulars: in vivo.
The test system of series [40] is Plasma. The experiment in a line: AUC (0 to 3 hrs) in FVB mouse plasma at 10 mg/kg, po. Also noted: time < 3 hr, dose 10 mg/kg, route oral. Particulars: in vivo. Format: ADME, organism-based.
A short description of series [41]: Drug uptake in FVB mouse brain at 10 mg/kg, po at 3 hrs. Format: ADME, organism-based. Also noted: dose 10 mg/kg, route oral. Particulars: read-out: Drug uptake.
A short description of series [42]: Octanol-water partition co-efficient, log P of the compound by shake-flask method. Format: physicochemical.
Series [43] deals with Plasma. The experiment in a line: AUC (0 to 3 hrs) in FVB mouse plasma at 1 mg/kg, po. As to conditions: in vivo. Also noted: time < 3 hr, dose 1 mg/kg, route oral. Format: ADME, organism-based.
The test system of series [44] is Brain. Description: AUC (0 to 3 hrs) in FVB mouse brain at 3 mg/kg, po. Format: ADME, organism-based. Further details: time < 3 hr, dose 3 mg/kg, route oral. As to conditions: in vivo.
Series [45] can be described thus: Drug uptake in FVB mouse brain at 1 mg/kg, po at 3 hrs. Also noted: dose 1 mg/kg, route oral. Format: ADME, organism-based. Particulars: read-out: Drug uptake.

Molecules are shown by their SMILES. Values after ≈ are worked out from the molar mass of the structure shown.

On to `CC(C)[C@H](O)C(=O)N[C@@H](C)C(=O)N[C@@H]1C(=O)N(C)CCc2ccccc21` [SEMAGACESTAT], for which the Stability came out at 92% in series [1]; 88% in series [2]; 92% in [4]; 93% in series [6]; 100% in [8]; 96% in [9]. The Stability is 87% in series [10] and 100% in series [15]. For the same compound, the Activity was found to be 19% in series [3], 31% in series [5], 47% in series [11] and 5% in series [18]. The ED50 in series [7] was found to be 15 nM; in series [17], 220 nM. For the same compound, the half-maximal inhibitory concentration (IC50) in [12] amounted to 7.9 nM; in series [14], 3.2 nM. Also, the Ratio ED50 in [13] stood at 15. Besides, the Ratio IC50 in series [16] worked out at 0.41.

In series [19], `CC(C)NCC(O)COc1cccc2ccccc12` (stereo not given) [PROPRANOLOL] yielded a bioavailability of 30%. Further, the Papp in series [20] stood at 17.8 ×10⁻⁶ cm/s.

Regarding `O=S(=O)(c1ccc(C(F)(F)F)nc1)N1c2ccc(F)cc2-c2n[nH]cc2[C@H]1C1CC1`, the concentration at 3 h in series [21] is 2600 nM; in [23], 79 nM; in series [25] it was 3500 nM; in [29] it was 1200 nM; in series [30], 14 nM; in series [33], 220 nM. For the same compound, the results for the concentration at 3 h in [41] and in series [45] were 1000 nM and 45 nM, respectively. Also, in series [19], the bioavailability stood at 92%. Also, the solubility in [22] came out at 100 µg/mL (≈ 228 µM). Besides, the Stability in series [1] amounted to 85%; in series [2] it was 90%; in [4], 91%; in series [6], 91%; in series [8], 80%; in series [9] it was 87%. Further, the Stability in [10] is 81%; in series [15], 80%. The Activity is reported as -44% in [24]; “Toxic” in series [26]; 56% in series [3]; 61% in [5]; -21% in series [34]; -46% in series [35]. The results for the Activity in series [11], in [36] and in [18] were 62%, 11% and 34%, respectively. Also, the AUC was determined as 0.57 µM in series [27]; 12 µM in series [32]; 0.24 µM in [37]; 4.1 µM in [38]; 11 µM in series [39]; 4.7 µM in series [40]. The AUC in series [43] came to 0.14 µM; in series [44], 0.92 µM. This compound also came in with a clearance in series [28] of 23 mL/min/kg. In addition, the Papp in series [20] worked out at 8.8 ×10⁻⁶ cm/s. In series [31], the CLH is given as 42%. For the same compound, the ED50 in series [7] is 0.28 nM; in series [17], 20 nM. Moreover, the IC50 amounted to 0.1 nM in series [12] and 1.7 nM in series [14]. The Ratio ED50 in series [13] was determined as 71. For the same compound, in [16], the Ratio IC50 amounted to 17. In series [42], this compound came in with a logP of 3.65.
